{"source": "patent US5998420A", "about": "“Method for treating Mycobacterium tuberculosis” (priority 1996, dated 1999)", "key": {"[1]": {"details": "cited from earlier work; for decomposition (retro-aldol): in the presence of divalent metals, unpublished observation"}, "plants": {"test_system": "plants", "details": "leucine alone; cited from earlier work"}, "[2]": {"test_system": "yeast isopropylmalate isomerase", "details": "cited from earlier work; for inhibition of yeast isopropylmalate isomerase, 19 vs 21: fully ionized, nitronate forms"}, "[3]": {"test_system": "Mycobacterium tuberculosis", "details": "cited from earlier work; for change in final colony forming units vs starting: Klemens et al., 1994"}, "[4]": {"test_system": "Mycobacterium tuberculosis", "details": "Heifets L. B. (1994); cited from earlier work"}, "[5]": {"test_system": "acetolactate synthase from E. coli", "details": "1 mM; cited from earlier work"}, "[6]": {"test_system": "dihydroxy acid dehydratase from E. coli", "details": "1 mM; cited from earlier work"}, "[7]": {"test_system": "Mycobacterium tuberculosis strain RC1", "test": "MIC by agar dilution, M. tuberculosis strain RC1", "assay_type": "cell-based", "details": "for MIC: Mycobacterium tuberculosis, RC1; for effect of LIV addition on toxicity, strain RC1: strain RC1, LIV added"}, "[8]": {"test_system": "Mycobacterium tuberculosis strain ATCC35801", "test": "MIC by agar dilution, M. tuberculosis strain ATCC35801", "assay_type": "cell-based", "details": "for MIC: Mycobacterium tuberculosis, ATCC35801; for effect of LIV addition on toxicity, strain ATCC35801: strain ATCC35801, LIV added"}, "[9]": {"test_system": "E. coli ketol-acid reductoisomerase", "details": "presence of Mg2+ and NADPH; read-out: overall dissociation constant; cited from earlier work"}, "[10]": {"test_system": "ketol-acid reductoisomerase", "details": "cited from earlier work"}, "yeast": {"test_system": "yeast", "details": "minimal media; cited from earlier work"}, "[11]": {"test_system": "E. coli ketol-acid reductoisomerase", "details": "cited from earlier work"}, "[12]": {"assay_type": "in vivo, CD-1 female mice", "details": "500 mg/kg body weight subcutaneous each day for 30 days", "method": "To determine if high doses of sulfometuron methyl would be toxic to mice, a 20 mg/ml solution of this compound was prepared in phosphate buffered saline and 0.5 ml of this was injected subcutaneously into 4 day-old CD-1 female mice each day for 30 days. This dose corresponded to 500 mg sulfometuron methyl/kg body weight of the mouse. After the 30-day course of treatment the mice were sacrificed and the internal organs were examined by a veterinarian trained in laboratory animal care. The organs were compared to a control group that received injections of phosphate buffered saline."}, "[13]": {"test_system": "Mycobacterium tuberculosis strain ATCC35801", "test": "Tuberculosis mouse model study, colony forming units in lungs and spleens", "assay_type": "in vivo, mice"}, "K. pneumoniae": {"test_system": "K. pneumoniae", "details": "cited from earlier work"}, "[14]": {"test_system": "ketol-acid reductoisomerase from carrot (plant)", "details": "cited from earlier work"}, "carrot cells": {"test_system": "carrot cells", "details": "branched chain amino acids; cited from earlier work"}, "E. coli": {"test_system": "E. coli", "details": "minimal media; cited from earlier work"}, "[15]": {"test_system": "ketol-acid reductoisomerase from Klebsiella pneumoniae", "details": "cited from earlier work"}, "[16]": {"details": "leucine, isoleucine, and valine added (+LIV), read-out: MIC +LIV, strain RC1"}, "[17]": {"details": "no branched chain amino acids (-LIV), read-out: MIC -LIV, strain RC1"}, "[18]": {"details": "leucine, isoleucine, and valine added (+LIV)"}, "[19]": {"details": "no branched chain amino acids (-LIV)"}}, "note": "pKd: −log10 of the molar value. Read-outs that look alike come from different tables or passages of the source."}
{"compound": "O=C(O)C1(O)CCCC1[N+](=O)[O-]", "note": "(centres unmarked) [Compound 21]", "values": [{"measurement": "stability of the molecule", "setting": "[1]; cyclopentane ring of 21", "value": "insures stability of the molecule"}, {"measurement": "reversal of herbicidal activity", "setting": "plants", "value": "reversed by leucine alone"}, {"measurement": "inhibition of yeast isopropylmalate isomerase, 19 vs 21", "setting": "[2]", "value": "comparable"}, {"measurement": "inhibition of isopropylmalate isomerase, 21 vs 19", "setting": "[2]; physiological conditions (pH 7)", "value": "much more potent inhibitor than 19"}]}
{"compound": "NNC(=O)c1ccncc1", "note": "[Isoniazid]", "values": [{"measurement": "Mycobacterium tuberculosis in spleens and lungs of mice", "setting": "[3]; 25 mg/kg (Lalande et al., 1993)", "value": "significantly reduced"}, {"measurement": "change in final colony forming units vs starting", "setting": "[3]", "value": "caused a decrease"}, {"measurement": "MIC of first-line anti-tuberculosis drugs", "setting": "[4]", "value": 0.2, "unit": "µg/mL"}]}
{"compound": "[H]/N=C(/N)N[C@H]1[C@H](O)[C@@H](O)[C@H](O[C@@H]2O[C@@H](C)[C@](O)(C=O)[C@H]2O[C@@H]2O[C@@H](CO)[C@H](O)[C@@H](O)[C@@H]2NC)[C@@H](N/C(N)=N\\[H])[C@@H]1O", "note": "[Streptomycin]", "values": [{"measurement": "MIC of first-line anti-tuberculosis drugs", "setting": "[4]", "value": 3, "unit": "µg/mL"}]}
{"compound": "NC(=O)c1cnccn1", "note": "[Pyrazinamide]", "values": [{"measurement": "change in final colony forming units vs starting", "setting": "[3]", "value": "did not cause a decrease"}, {"measurement": "MIC of first-line anti-tuberculosis drugs", "setting": "[4]", "value": 16, "unit": "µg/mL"}]}
{"compound": "CO[C@H]1/C=C/O[C@@]2(C)Oc3c(C)c(O)c4c(O)c(c(/C=N/N5CCN(C)CC5)c(O)c4c3C2=O)NC(=O)/C(C)=C\\C=C\\[C@H](C)[C@H](O)[C@@H](C)[C@@H](O)[C@@H](C)[C@H](OC(C)=O)[C@@H]1C", "note": "[Rifampicin]", "values": [{"measurement": "change in final colony forming units vs starting", "setting": "[3]", "value": "caused a decrease"}, {"measurement": "MIC of first-line anti-tuberculosis drugs", "setting": "[4]", "value": 0.5, "unit": "µg/mL"}]}
{"compound": "CC(C)N(O)C(=O)C(=O)O", "note": "[IpOHA, N-Isopropyloxayl hydroxamate]", "values": [{"measurement": "effect on acetolactate synthase", "setting": "[5]", "value": "no effect"}, {"measurement": "effect on dihydroxy acid dehydratase", "setting": "[6]", "value": "no effect"}, {"measurement": "MIC", "setting": "[7]; [16]", "value": 9.2, "unit": "µg/mL"}, {"measurement": "MIC", "setting": "[7]; [17]", "value": 9.2, "unit": "µg/mL"}, {"measurement": "effect of LIV addition on toxicity, strain RC1", "setting": "[7]", "value": "did not reverse the toxic effects"}, {"measurement": "MIC", "setting": "[8]; [18]", "value": "> 18", "unit": "µg/mL"}, {"measurement": "MIC", "setting": "[8]; [19]", "value": 18, "unit": "µg/mL"}, {"measurement": "effect of LIV addition on toxicity, strain ATCC35801", "setting": "[8]", "value": "decreased the toxicity"}, {"measurement": "pKd", "setting": "[9]", "value": 10.70}, {"measurement": "inhibition of ketol-acid reductoisomerase", "setting": "[10]", "value": "potent inhibitors"}]}
{"compound": "CC(C)C(C(O)C(=O)O)[N+](=O)[O-]", "note": "(centres unmarked) [Compound 19]", "values": [{"measurement": "decomposition (retro-aldol)", "setting": "[1]", "value": "rapid rate"}, {"measurement": "inhibition of yeast isopropylmalate isomerase", "setting": "[2]", "value": "potent inhibitors"}, {"measurement": "inhibition of yeast isopropylmalate isomerase, 19 vs 21", "setting": "[2]", "value": "comparable"}, {"measurement": "growth of yeast", "setting": "yeast", "value": "no affect"}]}
{"compound": "CC(C)C(O)(C[N+](=O)[O-])C(=O)O", "note": "(centres unmarked) [Compound 20]", "values": [{"measurement": "decomposition (retro-aldol)", "setting": "[1]", "value": "rapid rate"}, {"measurement": "inhibition of yeast isopropylmalate isomerase", "setting": "[2]", "value": "potent inhibitors"}, {"measurement": "growth of yeast", "setting": "yeast", "value": "no affect"}]}
{"compound": "O=C(O)C(=O)N(O)Cc1ccccc1", "note": "[Compound 13]", "values": [{"measurement": "association rate for the inhibitor, benzyl (13) vs hydrogen (9) on nitrogen", "setting": "[11]; relative to 9", "value": "increased the association rate for the inhibitor modestly"}]}
{"compound": "COC(=O)c1ccccc1S(=O)(=O)NC(=O)Nc1nc(C)cc(C)n1", "note": "[SM, sulfometuron methyl]", "values": [{"measurement": "behavior of the mice and condition of the internal organs vs PBS", "setting": "[12]", "value": "No significant differences"}, {"measurement": "Mann-Whitney U test, 2-tailed P, lungs", "setting": "[13]; 20 mg/kg and 100 mg SM/kg", "value": 0.31}, {"measurement": "Mann-Whitney U test, 2-tailed P, lungs", "setting": "[13]; 20 mg/kg and 500 mg SM/kg", "value": 0.002}, {"measurement": "Mann-Whitney U test, 2-tailed P, lungs", "setting": "[13]; 100 mg/kg and 500 mg SM/kg", "value": 0.009}, {"measurement": "mice with more than 200 colony forming units in the lungs", "setting": "[13]; 500 mg sulfometuron methyl/kg, lungs, 31 days", "value": "none"}, {"measurement": "mice with more than 10^3 colony forming units/spleen, 500 mg/kg", "setting": "[13]; 500 mg sulfometuron methyl/kg, spleen", "value": 13, "unit": "%"}, {"measurement": "growth of Mycobacterium tuberculosis in the lungs", "setting": "[13]; 500 mg/kg body weight", "value": "significantly reduced growth"}, {"measurement": "Mann-Whitney U test, 2-tailed P, lungs", "setting": "[13]; PBS and 20 mg SM/kg", "value": 0.39}, {"measurement": "Mann-Whitney U test, 2-tailed P, lungs", "setting": "[13]; PBS and 100 mg SM/kg", "value": 0.65}, {"measurement": "Mann-Whitney U test, 2-tailed P, lungs", "setting": "[13]; PBS and 500 mg SM/kg", "value": 0.03}, {"measurement": "growth of Mycobacterium tuberculosis in a mouse model system", "setting": "[13]; mouse, in vivo", "value": "inhibites growth"}, {"measurement": "Kruskal-Wallis test, P, spleen", "setting": "[13]; overall difference between four groups, spleen, P < 0.05 considered significant", "value": "> 0.05"}, {"measurement": "mice with more than 10^3 colony forming units in the lungs", "setting": "[13]; pooled groups PBS, 20 mg/kg and 100 mg/kg SM, lungs, 31 days", "value": 65, "unit": "%"}, {"measurement": "mice with over 10^3 colony forming units/spleen, pooled groups", "setting": "[13]; pooled groups PBS, 20 mg/kg and 100 mg/kg SM, spleen", "value": 52, "unit": "%"}, {"measurement": "MIC", "setting": "[7]; [16]", "value": 1.8, "unit": "µg/mL"}, {"measurement": "MIC", "setting": "[7]; [17]", "value": 0.3, "unit": "µg/mL"}, {"measurement": "MIC", "setting": "[7]; read-out: minimum inhibitory concentration, medium supplemented with bovine serum albumin", "value": 4.4, "unit": "µg/mL"}, {"measurement": "MIC", "setting": "[7]; read-out: minimum inhibitory concentration, medium supplemented with sodium oleate and bovine serum albumin", "value": 2.2, "unit": "µg/mL"}, {"measurement": "effect of LIV addition on toxicity, strain RC1", "setting": "[7]", "value": "partially reduced the toxicity"}, {"measurement": "effect of isoleucine and valine addition on inhibition", "setting": "[7]; strain RC1, isoleucine and valine added", "value": "did not prevent inhibition"}, {"measurement": "MIC", "setting": "[8]; [18]", "value": "> 3.6", "unit": "µg/mL"}, {"measurement": "MIC", "setting": "[8]; [19]", "value": 3.6, "unit": "µg/mL"}, {"measurement": "effect of LIV addition on toxicity, strain ATCC35801", "setting": "[8]", "value": "prevented the toxicity"}]}
{"compound": "CC[C@@H](CO)NCCN[C@@H](CC)CO", "note": "[Ethambutol]", "values": [{"measurement": "change in final colony forming units vs starting", "setting": "[3]", "value": "did not cause a decrease"}, {"measurement": "MIC of first-line anti-tuberculosis drugs", "setting": "[4]", "value": 2, "unit": "µg/mL"}]}
{"compound": "CP(C)(=O)C(O)C(=O)O", "note": "(centres unmarked) [Hoe 704, 2-dimethylphosphinoyl-2-hydroxy acetic acid]", "values": [{"measurement": "inhibition of E. coli ketol-acid reductoisomerase", "setting": "[11]; Hoe 704", "value": "potent and selective inhibitor"}, {"measurement": "reversal of growth inhibitory effect on K. pneumoniae", "setting": "K. pneumoniae; branched chain amino acids and pantoate", "value": "requires both branched chain amino acids and pantoate"}, {"measurement": "growth of K. pneumoniae", "setting": "K. pneumoniae", "value": "does inhibit the growth"}, {"measurement": "inhibition of carrot ketol-acid reductoisomerase", "setting": "[14]", "value": "potent and selective inhibitor"}, {"measurement": "MIC", "setting": "[7]; [17]", "value": "> 37", "unit": "µg/mL"}, {"measurement": "reversal of effect on carrot cells in culture", "setting": "carrot cells", "value": "can be reversed by branched chain amino acids alone"}, {"measurement": "growth inhibition of E. coli", "setting": "E. coli", "value": "does not inhibit the growth"}, {"measurement": "inhibition of Klebsiella pneumoniae ketol-acid reductoisomerase", "setting": "[15]", "value": "potent and selective inhibitor"}, {"measurement": "inhibition of ketol-acid reductoisomerase", "setting": "[10]", "value": "potent inhibitors"}]}
{"compound": "COc1nc(C)nc(NC(=O)NS(=O)(=O)c2ccccc2Cl)n1", "note": "[Chlorsulfuron]", "values": [{"measurement": "MIC", "setting": "[7]; [16]", "value": "> 35", "unit": "µg/mL"}, {"measurement": "MIC", "setting": "[7]; [17]", "value": 4.4, "unit": "µg/mL"}, {"measurement": "effect of LIV addition on toxicity, strain RC1", "setting": "[7]", "value": "completely reversed the effects"}]}
{"compound": "CCCCCCCCCCCCN(O)C(=O)C(=O)O", "note": "[Compound 14]", "values": [{"measurement": "potency relative to 13", "setting": "[11]; 12-carbon chain on nitrogen, Aulabaugh & Schloss, unpublished", "value": "comparable in potency to 13"}]}
